Experimental data reported in PubChem BioAssay (NCI).
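Following 48 hours of exposure in 96-well plates, responses at five concentrations were used to interpolate endpoints linearly. Definition used: TGI = concentration required for complete inhibition of growth.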

Key:
Test in all cases: NCI-60 cell line screen, 48 h
DLD-1 colon = system: DLD-1 colon
M19-MEL melanoma = system: M19-MEL melanoma
DMS 273 small cell lung = system: DMS 273 small cell lung
HOP-18 NSCLC = system: HOP-18 NSCLC
LXFL 529 NSCLC = system: LXFL 529 NSCLC
OVCAR-5 ovarian = system: OVCAR-5 ovarian
KM20L2 colon = system: KM20L2 colon
SNB-78 CNS = system: SNB-78 CNS
MOLT-4 leukemia = system: MOLT-4 leukemia
HL-60(TB) leukemia = system: HL-60(TB) leukemia
RXF-631 renal = system: RXF-631 renal
DMS 114 small cell lung = system: DMS 114 small cell lung
XF 498 CNS = system: XF 498 CNS

`CN1NC2=NCCN=C3NN(C)C(=NCCN=C1S2)S3` gave a TGI (DLD-1 colon) of over 100 µM, a TGI (M19-MEL melanoma) of over 100 µM and a TGI (DMS 273 small cell lung) of over 100 µM. For the same molecule, the TGI (HOP-18 NSCLC) was over 100 µM, the TGI (LXFL 529 NSCLC) was over 100 µM and the TGI (OVCAR-5 ovarian) was over 100 µM. For the same molecule, the TGI (KM20L2 colon) was over 100 µM, the TGI (SNB-78 CNS) was over 100 µM and the TGI (MOLT-4 leukemia) was over 100 µM. It also gave a TGI (HL-60(TB) leukemia) of over 100 µM.
Molecule `CC(C)(C)c1ccc(Oc2ccc(C#N)c(C#N)c2)c(C(C)(C)C)c1` has a TGI (DLD-1 colon) of over 100 µM, a TGI (DMS 273 small cell lung) of 28.5 µM and a TGI (HOP-18 NSCLC) of over 100 µM. For the same molecule, the TGI (LXFL 529 NSCLC) was over 100 µM, the TGI (OVCAR-5 ovarian) was over 100 µM and the TGI (KM20L2 colon) was over 100 µM. For the same molecule, the TGI (SNB-78 CNS) was over 100 µM, the TGI (RXF-631 renal) was over 100 µM and the TGI (MOLT-4 leukemia) was 52.9 µM. The TGI (DMS 114 small cell lung) was over 52.2 µM, the TGI (HL-60(TB) leukemia) was 32.3 µM and the TGI (XF 498 CNS) was 35.4 µM.
Molecule `Brc1nc2c3ccccc3ncn2c1Br` has a TGI (DLD-1 colon) of over 100 µM, a TGI (M19-MEL melanoma) of over 100 µM and a TGI (DMS 273 small cell lung) of over 100 µM. It also gave a TGI (HOP-18 NSCLC) of 47.8 µM, a TGI (LXFL 529 NSCLC) of over 100 µM and a TGI (OVCAR-5 ovarian) of over 100 µM. It also gave a TGI (KM20L2 colon) of over 100 µM, a TGI (SNB-78 CNS) of over 100 µM and a TGI (RXF-631 renal) of over 100 µM. For the same molecule, the TGI (MOLT-4 leukemia) was 84.6 µM, the TGI (DMS 114 small cell lung) was 98.4 µM and the TGI (HL-60(TB) leukemia) was over 100 µM. It also gave a TGI (XF 498 CNS) of 46.9 µM.
`Cc1c2[nH]c3ccc(Br)cc3c2c(C)c2[nH]ccc(=O)c12` gave a TGI (DLD-1 colon) of over 100 µM, a TGI (M19-MEL melanoma) of 29.6 µM and a TGI (DMS 273 small cell lung) of 27 µM. For the same molecule, the TGI (HOP-18 NSCLC) was 22.9 µM, the TGI (OVCAR-5 ovarian) was 30 µM and the TGI (SNB-78 CNS) was 35.7 µM. It also gave a TGI (MOLT-4 leukemia) of 28 µM, a TGI (DMS 114 small cell lung) of 35.2 µM and a TGI (HL-60(TB) leukemia) of 38.5 µM. It also gave a TGI (XF 498 CNS) of 29.7 µM.
`CN(OC(=O)CC(=O)c1ccccc1)C(=O)Cc1ccccc1` gave a TGI (DLD-1 colon) of over 100 µM, a TGI (M19-MEL melanoma) of over 100 µM and a TGI (LXFL 529 NSCLC) of over 100 µM. The TGI (OVCAR-5 ovarian) was over 100 µM, the TGI (KM20L2 colon) was over 100 µM and the TGI (SNB-78 CNS) was over 100 µM. It also gave a TGI (RXF-631 renal) of over 100 µM, a TGI (DMS 114 small cell lung) of over 100 µM and a TGI (HL-60(TB) leukemia) of over 100 µM.
Work on `COc1c2c(c(OC)c3c(=O)cc(C/C(=N/NC(=O)C[n+]4ccccc4)C(=O)Nc4cc(C)ccc4C)oc13)OCO2` yielded a TGI (DLD-1 colon) of over 100 µM, a TGI (M19-MEL melanoma) of over 100 µM and a TGI (DMS 273 small cell lung) of over 100 µM. The TGI (LXFL 529 NSCLC) was over 100 µM, the TGI (OVCAR-5 ovarian) was over 100 µM and the TGI (KM20L2 colon) was over 100 µM. It also gave a TGI (SNB-78 CNS) of over 100 µM, a TGI (MOLT-4 leukemia) of over 100 µM and a TGI (DMS 114 small cell lung) of over 100 µM. The TGI (HL-60(TB) leukemia) was over 100 µM.
In the case of `COC1=C(OC)C(=O)c2cc(SC)c(=O)c(SC)cc2C1=O`, the TGI (DLD-1 colon) is reported as over 100 µM, the TGI (DMS 273 small cell lung) is reported as over 100 µM and the TGI (HOP-18 NSCLC) is reported as 82.2 µM. The TGI (LXFL 529 NSCLC) was 29.5 µM, the TGI (KM20L2 colon) was over 100 µM and the TGI (MOLT-4 leukemia) was 17.4 µM. It also gave a TGI (DMS 114 small cell lung) of 13.4 µM, a TGI (HL-60(TB) leukemia) of 3.97 µM and a TGI (XF 498 CNS) of 15.1 µM.
`N#CC12CCC(O)C(CC1)C2=O` (stereo not given) showed a TGI (DLD-1 colon) of over 100 µM, a TGI (M19-MEL melanoma) of over 100 µM and a TGI (DMS 273 small cell lung) of over 100 µM. It also gave a TGI (HOP-18 NSCLC) of over 100 µM, a TGI (OVCAR-5 ovarian) of over 100 µM and a TGI (KM20L2 colon) of over 100 µM. It also gave a TGI (SNB-78 CNS) of over 100 µM, a TGI (RXF-631 renal) of over 100 µM and a TGI (MOLT-4 leukemia) of over 100 µM. The TGI (DMS 114 small cell lung) was 36 µM, the TGI (HL-60(TB) leukemia) was over 100 µM and the TGI (XF 498 CNS) was over 100 µM.
